Source: patent US10611751B2, “Dopamine D1 receptor positive allosteric modulators” (Eli Lilly and Company, priority 2018, dated 2020)
pEC50: −log10 of the molar value.

Target: human D1 receptor (Homo sapiens (Human), UniProt P21728)
Assay: Human D1 Receptor PAM Assay (cAMP HTRF, potentiator mode with EC20 dopamine)
Type: cell-based
Settings: for pEC50: HEK293 cells expressing human D1 receptor, 12 nM dopamine (EC20), cAMP, read-out: Abs EC50; for Emax: fitted top of curve, 0% = EC20 dopamine, 100% = 5 μM dopamine, read-out: % Top (% Potentiation)
Excerpt: The PAM activity of the compounds of the present invention may be measured essentially as described in Svensson et al., An Allosteric Potentiator of the Dopamine D1 Receptor Increases Locomotor Activity in Human D1 Knock-in Mices without Casusing Stereotypy or Tachyphylaxis. J. Pharmacol. Exp. Ther. (2017) 360:117-128.
More specifically, HEK293 cells that stably express the human D1 receptor (Accession number NM_000794) are generated by gene transduction using the pBABE-bleo retroviral vector and selected with Zeocin™ (InvivoGen). At approximately 80% confluency, the cells are harvested using TrypLE™ Express (Gibco), suspended in FBS plus 8% DMSO, and stored in liquid nitrogen. On the day of the assay, cells are thawed and resuspended in STIM buffer (Hanks Balanced Salt Solution supplemented with 0.1% BSA, 20 mM HEPES, 500 μM IBMX, and 100 μM ascorbic acid).
Test compound is serially diluted (1:2) with DMSO into assay plates (ProxiPlate-384 Plus, PerkinElmer) using acoustic dispensing (Labcyte) to provide 20 concentrations for full response curves. […] Plates are incubated at room temperature for a total reaction time of 60 min.
cAMP production is quantified using HTRF® detection (Cisbio) according to the manufacturer's instructions. Generally, lysis buffer containing anti-cAMP cryptate (5 μL) and D2-conjugate (from HTRF® kit) (5 μL) is added to the wells, plates are incubated for an additional 60-90 min, and the time-resolved fluorescence is detected using an EnVision™ plate reader (PerkinElmer). Fluorescence data is converted to cAMP concentrations using a cAMP standard curve and analyzing using a 4-parameter non-linear logistic equation (Genedata Screener, version 13.0.5-standard). For potentiator mode concentration-response curves, results are expressed as percent of the window between a response at EC20 concentration of dopamine alone (normalized to 0%) and the maximum response to dopamine (defined by response to 5 μM dopamine, final concentration, normalized as 100%).
Absolute EC50 values are calculated based on the maximum and minimum responses of the control agonist (dopamine). The % Potentiation (% Top) is determined from the fitted top of the concentration response curve.

human D1 receptor, sequence (P21728 whole entry): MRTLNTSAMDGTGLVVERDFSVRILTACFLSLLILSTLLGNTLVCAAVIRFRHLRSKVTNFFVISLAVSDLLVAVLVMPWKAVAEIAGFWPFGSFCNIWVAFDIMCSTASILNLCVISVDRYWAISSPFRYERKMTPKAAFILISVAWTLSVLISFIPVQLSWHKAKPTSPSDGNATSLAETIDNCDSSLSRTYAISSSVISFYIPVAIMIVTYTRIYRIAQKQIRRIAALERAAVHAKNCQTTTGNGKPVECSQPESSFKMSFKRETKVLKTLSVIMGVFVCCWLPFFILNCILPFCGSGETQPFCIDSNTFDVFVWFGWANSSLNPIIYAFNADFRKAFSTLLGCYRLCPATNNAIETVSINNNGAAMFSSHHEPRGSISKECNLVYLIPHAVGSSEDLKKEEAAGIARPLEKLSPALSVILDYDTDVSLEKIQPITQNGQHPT

CCn1cc(-c2cccc3c2C[C@H](CO)N(C(=O)Cc2c(Cl)cccc2Cl)[C@H]3C)cn1 [Example 2, 2-(2,6-dichlorophenyl)-1-((1S,3R)-5-(1-ethyl-1H-pyrazol-4-yl)-3-(hydroxymethyl)-1-methyl-3,4-dihydroisoquinolin-2(1H)-yl)ethan-1-one]
pEC50: 6.76
Emax: 91.2%

C[C@H]1c2cccc(-c3cnn(C4CC4)c3)c2C[C@H](CO)N1C(=O)Cc1c(Cl)cccc1Cl [Example 3, 1-((1S,3R)-5-(1-cyclopropyl-1H-pyrazol-4-yl)-3-(hydroxymethyl)-1-methyl-3,4-dihydroisoquinolin-2(1H)-yl)-2-(2,6-dichlorophenyl)ethan-1-one]
pEC50: 6.54
Emax: 88.1%

C[C@H]1c2cccc(-c3cnn(CCO)c3)c2C[C@H](CO)N1C(=O)Cc1ccccc1Cl [Example 5, 1-((1S,3R)-5-(1-(2-(l1-oxidaneyl)ethyl)-1H-pyrazol-4-yl)-3-(hydroxymethyl)-1-methyl-3,4-dihydroisoquinolin-2(1H)-yl)-2-(2-chlorophenyl)ethan-1-one]
pEC50: 7.74
Emax: 79.1%

C[C@H]1c2cccc(-c3cnn(C4COC4)c3)c2C[C@H](CO)N1C(=O)Cc1c(F)cccc1Cl [Example 6, 2-(2-chloro-6-fluorophenyl)-1-((1S,3R)-3-(hydroxymethyl)-1-methyl-5-(1-(oxetan-3-yl)-1H-pyrazol-4-yl)-3,4-dihydroisoquinolin-2(1H)-yl)ethan-1-one]
pEC50: 7.37
Emax: 80.4%

C[C@H]1c2cccc(-c3cnn(C)c3)c2C[C@H](CO)N1C(=O)Cc1ccccc1Cl [Example 7, 2-(2-chlorophenyl)-1-((1S,3R)-3-(hydroxymethyl)-1-methyl-5-(1-methyl-1H-pyrazol-4-yl)-3,4-dihydroisoquinolin-2(1H)-yl)ethan-1-one]
pEC50: 7.09
Emax: 82.4%

C[C@H]1c2cccc(-c3cn[nH]c3)c2C[C@H](CO)N1C(=O)Cc1c(F)cccc1Cl [Example 9, 2-(2-chloro-6-fluorophenyl)-1-((1S,3R)-3-(hydroxymethyl)-1-methyl-5-(1H-pyrazol-4-yl)-3,4-dihydroisoquinolin-2(1H)-yl)ethan-1-one]
pEC50: 7.55
Emax: 81.5%

C[C@H]1c2cccc(-c3cn[nH]c3)c2C[C@H](CO)N1C(=O)Cc1c(F)cccc1F [Example 10, 2-(2,6-difluorophenyl)-1-((1S,3R)-3-(hydroxymethyl)-1-methyl-5-(1H-pyrazol-4-yl)-3,4-dihydroisoquinolin-2(1H)-yl)ethan-1-one]
pEC50: 6.90
Emax: 78.1%

C[C@H]1c2cccc(-c3cn[nH]c3)c2C[C@H](CO)N1C(=O)Cc1cc(F)ccc1Cl [Example 11, 2-(2-chloro-5-fluorophenyl)-1-((1S,3R)-3-(hydroxymethyl)-1-methyl-5-(1H-pyrazol-4-yl)-3,4-dihydroisoquinolin-2(1H)-yl)ethan-1-one]
pEC50: 6.95
Emax: 79.8%

C[C@H]1c2cccc(-c3cn[nH]c3)c2C[C@H](CO)N1C(=O)Cc1ccc(F)cc1Cl [Example 12, 2-(2-chloro-4-fluorophenyl)-1-((1S,3R)-3-(hydroxymethyl)-1-methyl-5-(1H-pyrazol-4-yl)-3,4-dihydroisoquinolin-2(1H)-yl)ethan-1-one]
pEC50: 6.27
Emax: 77.1%

C[C@H]1c2cccc(-c3cn[nH]c3)c2C[C@H](CO)N1C(=O)Cc1ccccc1F [Example 13, 2-(2-fluorophenyl)-1-((1S,3R)-3-(hydroxymethyl)-1-methyl-5-(1H-pyrazol-4-yl)-3,4-dihydroisoquinolin-2(1H)-yl)ethan-1-one]
pEC50: 6.32
Emax: 89.8%

C[C@H]1c2cccc(-c3cn[nH]c3)c2C[C@H](CO)N1C(=O)Cc1cccc(F)c1F [Example 14, 2-(2,3-difluorophenyl)-1-((1S,3R)-3-(hydroxymethyl)-1-methyl-5-(1H-pyrazol-4-yl)-3,4-dihydroisoquinolin-2(1H)-yl)ethan-1-one]
pEC50: 6.17
Emax: 72.6%

C[C@H]1c2cccc(-c3cn[nH]c3)c2C[C@H](CO)N1C(=O)Cc1cc(F)ccc1F [Example 15, 2-(2,5-difluorophenyl)-1-((1S,3R)-3-(hydroxymethyl)-1-methyl-5-(1H-pyrazol-4-yl)-3,4-dihydroisoquinolin-2(1H)-yl)ethan-1-one]
pEC50: 6.08
Emax: 75.5%
